Earlier results on two compounds are cited in US20240299434A1, “URIDINE TRIACETATE AMORPHOUS FORMULATION” (PHARMA CINQ. LLC, priority 2021, published 2024).

Structures are written as SMILES. Read-outs that look alike come from different tables or passages of the source.

For data set [1] the following is noted: humans.
The conditions of data set [2]: mice.

As to `CC(=O)OC[C@H]1O[C@@H](n2ccc(=O)[nH]c2=O)[C@H](OC(C)=O)[C@@H]1OC(C)=O` [Uridine triacetate, 2′,3′,5′-Tri-O-acetyluridine], the solubility in water entry was “approximately 10 milligrams per milliliter”. Consider `O=c1ccn([C@@H]2O[C@H](CO)[C@@H](O)[C@H]2O)c(=O)[nH]1` [uridine], for which the oral bioavailability result in data set [1] and in data set [2] was “approximately 7%” throughout.
